Assay results reported in patent publication US12435059B2, “AMP-activated protein kinase inhibitors and methods of making and using the same” (The Regents of the University of Colorado, priority 2019, dated 2025).
Read-outs that look alike come from different tables or passages of the source.

Key:
Assay in all cases: biochemical
Type in all cases: binding
468 kinases [1] = target: 468 kinases (Homo sapiens, UniProt P54756); settings: EPHA5; read-out: % Inhibition @ 100 nM
468 kinases [2] = target: 468 kinases (Homo sapiens, UniProt Q08881); settings: ITK; read-out: % Inhibition @ 100 nM
468 kinases [3] = target: 468 kinases (Homo sapiens, UniProt Q5VT25); settings: MRCKA; read-out: % Inhibition @ 100 nM
468 kinases [4] = target: 468 kinases (Homo sapiens, UniProt Q9H0K1); settings: SIK2; read-out: % Inhibition @ 100 nM
468 kinases [5] = target: 468 kinases (Homo sapiens, UniProt Q05397); settings: FAK; read-out: % Inhibition @ 100 nM
468 kinases [6] = target: 468 kinases (Homo sapiens, UniProt P06241); settings: FYN; read-out: % Inhibition @ 100 nM
468 kinases [7] = target: 468 kinases (Homo sapiens, UniProt P35590); settings: TIEI; read-out: % Inhibition @ 100 nM
468 kinases [8] = target: 468 kinases (Homo sapiens, UniProt Q99683); settings: ASK1; read-out: % Inhibition @ 100 nM
468 kinases [9] = target: 468 kinases (Homo sapiens, UniProt Q32MK0); settings: MLCK; read-out: % Inhibition @ 100 nM
468 kinases [10] = target: 468 kinases (Homo sapiens, UniProt P50750); settings: CDK9; read-out: % Inhibition @ 100 nM
468 kinases [11] = target: 468 kinases (Homo sapiens, UniProt Q96L34); settings: MARK4; read-out: % Inhibition @ 100 nM
468 kinases [12] = target: 468 kinases (Homo sapiens, UniProt Q5S007); settings: LRRK2; read-out: % Inhibition @ 100 nM
468 kinases [13] = target: 468 kinases (Homo sapiens, UniProt O14936); settings: CASK; read-out: % Inhibition @ 100 nM
468 kinases [14] = target: 468 kinases (Homo sapiens, UniProt P53778); settings: p38-gamma; read-out: % Inhibition @ 100 nM
468 kinases [15] = target: 468 kinases (Homo sapiens, UniProt P21127); settings: CDC2L1; read-out: % Inhibition @ 100 nM
468 kinases [16] = target: 468 kinases (Homo sapiens, UniProt Q00536); settings: PCTK1; read-out: % Inhibition @ 100 nM
468 kinases [17] = target: 468 kinases (Homo sapiens, UniProt P42336, H1047L); settings: PIK3CA(H1047L); read-out: % Inhibition @ 100 nM
468 kinases [18] = target: 468 kinases (Homo sapiens, UniProt P22607, G697C); settings: FGFR3(G697C); read-out: % Inhibition @ 100 nM
468 kinases [19] = target: 468 kinases (Homo sapiens, UniProt Q14004); settings: read-out: % Inhibition @ 100 nM, CDC2L5
468 kinases [20] = target: 468 kinases (Homo sapiens, UniProt P00519, Q252H); settings: read-out: % Inhibition @ 100 nM
468 kinases [21] = target: 468 kinases (Homo sapiens, UniProt Q14680); settings: MELK; read-out: % Inhibition @ 100 nM
468 kinases [22] = target: 468 kinases (Homo sapiens, UniProt P10721, T670I/V559D); settings: KIT(V559D,T6701); read-out: % Inhibition @ 100 nM
468 kinases [23] = target: 468 kinases (Homo sapiens, UniProt Q04759); settings: PRKCQ; read-out: % Inhibition @ 100 nM
468 kinases [24] = target: 468 kinases (Homo sapiens, UniProt O15264); settings: p38-delta; read-out: % Inhibition @ 100 nM
468 kinases [25] = target: 468 kinases (Homo sapiens, UniProt P00533, L858R/T790M); settings: EGFR(L858R,T790M); read-out: % Inhibition @ 100 nM
468 kinases [26] = target: 468 kinases (Mycobacterium tuberculosis, UniProt P9WI81); settings: PKNB(M.tuberculosis); read-out: % Inhibition @ 100 nM
468 kinases [27] = target: 468 kinases (Homo sapiens, UniProt Q9UF33); settings: EPHA6; read-out: % Inhibition @ 100 nM
468 kinases [28] = target: 468 kinases (Homo sapiens, UniProt Q8TBX8); settings: PIP5K2C; read-out: % Inhibition @ 100 nM
468 kinases [29] = target: 468 kinases (Homo sapiens, UniProt Q96NX5); settings: CAMK1G; read-out: % Inhibition @ 100 nM
468 kinases [30] = target: 468 kinases (Homo sapiens, UniProt Q16620); settings: TRKB; read-out: % Inhibition @ 100 nM
468 kinases [31] = target: 468 kinases (Homo sapiens, UniProt Q8IYT8); settings: ULK2; read-out: % Inhibition @ 100 nM
468 kinases [32] = target: 468 kinases (Homo sapiens, UniProt P00533, T790M); settings: EGFR(T790M); read-out: % Inhibition @ 100 nM

SMILES | inhibition at 0.1 µM (468 kinases [1]) | inhibition at 0.1 µM (468 kinases [2]) | inhibition at 0.1 µM (468 kinases [3]) | inhibition at 0.1 µM (468 kinases [4]) | inhibition at 0.1 µM (468 kinases [5]) | inhibition at 0.1 µM (468 kinases [6]) | inhibition at 0.1 µM (468 kinases [7]) | inhibition at 0.1 µM (468 kinases [8]) | inhibition at 0.1 µM (468 kinases [9]) | inhibition at 0.1 µM (468 kinases [10]) | inhibition at 0.1 µM (468 kinases [11]) | inhibition at 0.1 µM (468 kinases [12]) | inhibition at 0.1 µM (468 kinases [13]) | inhibition at 0.1 µM (468 kinases [14]) | inhibition at 0.1 µM (468 kinases [15]) | inhibition at 0.1 µM (468 kinases [16]) | inhibition at 0.1 µM (468 kinases [17]) | inhibition at 0.1 µM (468 kinases [18]) | inhibition at 0.1 µM (468 kinases [19]) | inhibition at 0.1 µM (468 kinases [20]; ABL1 (Q252H)-nonphosphorylated) | further results
CCN(CC)CCNC(=O)c1c(C)[nH]c(/C=C2\C(=O)Nc3ccc(CCO)cc32)c1C [Compound No. 10, (Z)—N-(2-(Diethylamino)ethyl)-5-((5-(2-hydroxyethyl)-2-oxoindolin-3-ylidene)methyl)-2,4-dimethyl-1H-pyrrole-3-carboxamide] | 0% | 12% | 3% | 0% | 8% | 0% | 2% | 0% | 0% | 0% | 41% | 96.5% | 19% | 14% | 0% | 0% | 16% | 52% | 27% | 33% | inhibition at 0.1 µM (468 kinases [20]; ABL1 (Q252H)-phosphorylated): 19%; inhibition at 0.1 µM (468 kinases [21]): 4%; inhibition at 0.1 µM (468 kinases [22]): 72%; inhibition at 0.1 µM (468 kinases [23]): 0%; inhibition at 0.1 µM (468 kinases [24]): 0%; inhibition at 0.1 µM (468 kinases [25]): 0%; inhibition at 0.1 µM (468 kinases [26]): 0%; inhibition at 0.1 µM (468 kinases [27]): 0%; inhibition at 0.1 µM (468 kinases [28]): 0%; inhibition at 0.1 µM (468 kinases [29]): 0%; inhibition at 0.1 µM (468 kinases [30]): 61%; inhibition at 0.1 µM (468 kinases [31]): 71%; inhibition at 0.1 µM (468 kinases [32]): 0%
CCN(CC)CCNC(=O)c1c(C)[nH]c(/C=C2\C(=O)Nc3ccc(CCC(N)=O)cc32)c1C [Compound No. 16, (Z)-5-((5-(3-Amino-3-oxopropyl)-2-oxoindolin-3-ylidene)methyl)-N-(2-(diethylamino)ethyl)-2,4-dimethyl-1H-pyrrole-3-carboxamide] | 9% | 12% | 9% | 15% | 100% | 95% | 14% | 20% | 0% | 6% | 12% | 94% | 34% | 15% | 7% | 19% | 15% | 12% | 50% | 55% | inhibition at 0.1 µM (468 kinases [20]; ABL1 (Q252H)-phosphorylated): 54%; inhibition at 0.1 µM (468 kinases [21]): 16%; inhibition at 0.1 µM (468 kinases [22]): 23%; inhibition at 0.1 µM (468 kinases [23]): 0%; inhibition at 0.1 µM (468 kinases [24]): 0%; inhibition at 0.1 µM (468 kinases [25]): 18%; inhibition at 0.1 µM (468 kinases [26]): 16%; inhibition at 0.1 µM (468 kinases [27]): 0%; inhibition at 0.1 µM (468 kinases [28]): 1%; inhibition at 0.1 µM (468 kinases [29]): 37%; inhibition at 0.1 µM (468 kinases [30]): 83%; inhibition at 0.1 µM (468 kinases [31]): 82%; inhibition at 0.1 µM (468 kinases [32]): 30%
